Results reported in US4195171A, “Derivatives of an antibiotic XK-62-2 and process for the production thereof” (Abbott Laboratories, priority 1975, dated 1980).
Values after ≈ are worked out from the molar mass of the structure shown. Read-outs that look alike come from different tables or passages of the source.

Key:
Test in all cases: Antibacterial spectrum, MIC by agar dilution method
Assay type in all cases: cell-based
Escherichia coli KY 8320 = conditions: KY8320, pH 7.2, strain produces neomycinkanamycin phosphotransferase Type I, read-out: Minimum Inhibitory Concentration
Description: (§1) XK-62-2, 1-N-[L-(-)-α-hydroxy-γ-aminobutyryl] XK-62-2, Compounds (I-1), (I-2), (II-1) and (II-2) against various Gram-negative and Gram-positive bacteria determined by agar dilution method at pH 7.2.
(§2) ^3 produces neomycinkanamycin phosphotransferase Type I

Escherichia coli KY 8349 = conditions: KY8349, pH 7.2, strain produces neomycinkanamycin phosphotransferase Type I, read-out: Minimum Inhibitory Concentration
Description: as §1, §2

[1] = test system: Pseudomonas aeruginosa KY 8518; conditions: KY8518, pH 7.2, strain produces neomycinkanamycin phosphotransferase Type I, read-out: Minimum Inhibitory Concentration
Description: as §1, §2

[2] = test system: Pseudomonas aeruginosa KY 8512; conditions: KY8512, pH 7.2, strain produces neomycinkanamycin phosphotransferase Type I and Type II, read-out: Minimum Inhibitory Concentration
Description: as §1
(§3) ^6 produces neomycinkanamycin phosphotransferase Type I and Type II

[3] = test system: Pseudomonas aeruginosa KY 8519; conditions: KY8519, agar dilution, pH 7.2, strain produces neomycinkanamycin phosphotransferase Type I and Type II, read-out: Minimum Inhibitory Concentration
Description: as §1, §3

Escherichia coli KY 8348 = conditions: KY8348, pH 7.2, strain produces gentamicin acetyltransferase Type I, read-out: Minimum Inhibitory Concentration
Description: as §1
(§4) ^2 produces gentamicin acetyltransferase Type I

[4] = test system: Pseudomonas aeruginosa KY 8511; conditions: KY8511, pH 7.2, strain produces gentamicin acetyltransferase Type I, read-out: Minimum Inhibitory Concentration
Description: as §1, §4

[5] = test system: Pseudomonas aeruginosa KY 8563
Description: as §1
^7 produces gentamicin acetyltransferase Type III

Escherichia coli KY 8321 = conditions: KY8321, pH 7.2, strain produces gentamicin adenyltransferase and neomycinkanamycin phosphotransferase Type II, read-out: Minimum Inhibitory Concentration
Description: as §1
^5 produces gentamicin adenyltransferase and neomycinkanamycin
phosphotransferase Type II

[6] = test system: Escherichia coli KY Z-338; conditions: KYZ338, pH 7.2, strain produces gentamicin adenyltransferase, read-out: Minimum Inhibitory Concentration
Description: as §1
(§5) ^4 produces gentamicin adenyltransferase

[7] = test system: Klebsiella pneumoniae Y-58; conditions: Y58, pH 7.2, strain produces gentamicin adenyltransferase, read-out: Minimum Inhibitory Concentration
Description: as §1, §5

[8] = test system: Klebsiella pneumoniae Y-60; conditions: Y60, pH 7.2, strain produces gentamicin adenyltransferase, read-out: Minimum Inhibitory Concentration
Description: as §1, §5

[9] = test system: Pseudomonas aeruginosa KY 8516
Description: as §1
(§6) ^1 produces kanamycin acetyltransferase

[10] = test system: Pseudomonas aeruginosa KY 8510
Description: as §1, §6

[11] = test system: Escherichia coli KY Z-343; conditions: KYZ343, pH 7.2, strain produces kanamycin acetyltransferase, read-out: Minimum Inhibitory Concentration
Description: as §1, §6

[12] = test system: Serratia marcescens POE 1065
Description: as §1, §6

[13] = test system: Staphylococcus aureus Smith; conditions: pH 7.2, read-out: Minimum Inhibitory Concentration
Description: as §1

[14] = test system: Salmonella typhimurium E-9; conditions: Salmonella enterica, pH 7.2, read-out: Minimum Inhibitory Concentration
Description: as §1

Proteus rettgeri KY 4288 = conditions: Providencia rettgeri, KY4288, pH 7.2, read-out: Minimum Inhibitory Concentration
Description: as §1

[15] = test system: Pseudomonas aeruginosa No. 12; conditions: pH 7.2, read-out: Minimum Inhibitory Concentration
Description: as §1

Proteus mirabilis 1287 = conditions: pH 7.2, read-out: Minimum Inhibitory Concentration
Description: as §1

Proteus vulgaris 6897 = conditions: pH 7.2, read-out: Minimum Inhibitory Concentration
Description: as §1

[16] = test system: Shigella sonnei ATCC 9290; conditions: ATCC9290, pH 7.2, read-out: Minimum Inhibitory Concentration
Description: as §1

[17] = test system: Salmonella enteritidis G-14; conditions: Salmonella enterica, pH 7.2, read-out: Minimum Inhibitory Concentration
Description: as §1

[18] = test system: Pseudomonas aeruginosa BMH 10; conditions: BMH10, pH 7.2, read-out: Minimum Inhibitory Concentration
Description: as §1

Serratia sp T-55 = conditions: T55, agar dilution, pH 7.2, read-out: Minimum Inhibitory Concentration
Description: as §1

[19] = test system: Klebsiella pneumoniae No. 8045; conditions: pH 7.2, read-out: Minimum Inhibitory Concentration
Description: as §1

[20] = test system: Staphylococcus aureus 209 P; conditions: pH 7.2, read-out: Minimum Inhibitory Concentration
Description: as §1

Proteus morganii KY 4298 = conditions: Morganella morganii
Description: as §1

Escherichia coli Juhl = conditions: pH 7.2, read-out: Minimum Inhibitory Concentration
Description: as §1

Escherichia coli T-5 = conditions: T5, agar dilution, pH 7.2, read-out: Minimum Inhibitory Concentration
Description: as §1

Escherichia coli T-2 = conditions: T2, pH 7.2, read-out: Minimum Inhibitory Concentration
Description: as §1

`CNCC1CCC(N)C(OC2C(N)CC(NC(=O)C(O)CN)C(OC3OCC(C)(O)C(N)C3O)C2O)O1` (racemic) [II-1, 3"-N-demethyl-1-N-(DL-α-hydroxy-β-aminopropionyl) XK-62-2] showed an MIC (Escherichia coli KY 8320) of 1.56 µg/mL (≈ 2.91 µM), an MIC (Escherichia coli KY 8349) of 0.4 µg/mL (≈ 0.745 µM) and an MIC [1] of 1.56 µg/mL (≈ 2.91 µM). The MIC [2] was 1.56 µg/mL (≈ 2.91 µM), the MIC [3] was 6.25 µg/mL (≈ 11.6 µM) and the MIC (Escherichia coli KY 8348) was 0.4 µg/mL (≈ 0.745 µM). For the same compound, the MIC [4] was 1.56 µg/mL (≈ 2.91 µM), the MIC ([5]; KY8563, pH 7.2, read-out: Minimum Inhibitory Concentration) was 3.12 µg/mL (≈ 5.81 µM) and the MIC (Escherichia coli KY 8321) was 1.56 µg/mL (≈ 2.91 µM). For the same compound, the MIC [6] was 0.78 µg/mL (≈ 1.45 µM), the MIC [7] was 0.78 µg/mL (≈ 1.45 µM) and the MIC [8] was 1.56 µg/mL (≈ 2.91 µM). The MIC ([9]; KY8516, pH 7.2, read-out: Minimum Inhibitory Concentration) was 3.12 µg/mL (≈ 5.81 µM), the MIC ([10]; KY8510, pH 7.2, read-out: Minimum Inhibitory Concentration) was 3.12 µg/mL (≈ 5.81 µM) and the MIC [11] was 0.4 µg/mL (≈ 0.745 µM). The MIC ([12]; POE1065, pH 7.2, read-out: Minimum Inhibitory Concentration) was 3.12 µg/mL (≈ 5.81 µM), the MIC [13] was 0.4 µg/mL (≈ 0.745 µM) and the MIC [14] was 0.78 µg/mL (≈ 1.45 µM). The MIC (Proteus rettgeri KY 4288) was 1.56 µg/mL (≈ 2.91 µM), the MIC [15] was 0.78 µg/mL (≈ 1.45 µM) and the MIC (Proteus mirabilis 1287) was 25 µg/mL (≈ 46.6 µM). For the same compound, the MIC (Proteus vulgaris 6897) was 12.5 µg/mL (≈ 23.3 µM), the MIC [16] was 3.12 µg/mL (≈ 5.81 µM) and the MIC [17] was 3.12 µg/mL (≈ 5.81 µM). It also gave an MIC [18] of 0.4 µg/mL (≈ 0.745 µM), an MIC (Serratia sp T-55) of 1.56 µg/mL (≈ 2.91 µM) and an MIC [19] of 0.78 µg/mL (≈ 1.45 µM). For the same compound, the MIC [20] was 0.4 µg/mL (≈ 0.745 µM), the MIC (Proteus morganii KY 4298; KY4298, pH 7.2, read-out: Minimum Inhibitory Concentration) was 3.12 µg/mL (≈ 5.81 µM) and the MIC (Escherichia coli Juhl) was 3.12 µg/mL (≈ 5.81 µM). It also gave an MIC (Escherichia coli T-5) of 1.56 µg/mL (≈ 2.91 µM) and an MIC (Escherichia coli T-2) of 1.56 µg/mL (≈ 2.91 µM).
`CNCC1CCC(N)C(OC2C(N)CC(NC(=O)C(O)CCN)C(OC3OCC(C)(O)C(NC)C3O)C2O)O1` (single isomer, unassigned) [1-N-[L-(-)-α-hydroxy-γ-aminobutyryl] XK-62-2, reference compound] showed an MIC (Escherichia coli KY 8320) of 0.2 µg/mL (≈ 0.354 µM), an MIC (Escherichia coli KY 8349) of 0.1 µg/mL (≈ 0.177 µM) and an MIC [1] of 1.56 µg/mL (≈ 2.76 µM). It also gave an MIC [2] of 1.56 µg/mL (≈ 2.76 µM), an MIC [3] of 6.25 µg/mL (≈ 11.1 µM) and an MIC (Escherichia coli KY 8348) of 0.1 µg/mL (≈ 0.177 µM). For the same compound, the MIC [4] was 1.56 µg/mL (≈ 2.76 µM), the MIC ([5]; KY8563, agar dilution, pH 7.2, strain produces gentamicin acetyltransferase Type III, read-out: Minimum Inhibitory Concentration) was 6.25 µg/mL (≈ 11.1 µM) and the MIC (Escherichia coli KY 8321) was 0.2 µg/mL (≈ 0.354 µM). It also gave an MIC [6] of 0.2 µg/mL (≈ 0.354 µM), an MIC [7] of 0.2 µg/mL (≈ 0.354 µM) and an MIC [8] of 0.2 µg/mL (≈ 0.354 µM). It also gave an MIC ([9]; KY8516, agar dilution, pH 7.2, strain produces kanamycin acetyltransferase, read-out: Minimum Inhibitory Concentration) of 3.12 µg/mL (≈ 5.53 µM), an MIC ([10]; KY8510, agar dilution, pH 7.2, strain produces kanamycin acetyltransferase, read-out: Minimum Inhibitory Concentration) of 3.12 µg/mL (≈ 5.53 µM) and an MIC [11] of 0.1 µg/mL (≈ 0.177 µM). The MIC ([12]; POE1065, agar dilution, pH 7.2, strain produces kanamycin acetyltransferase, read-out: Minimum Inhibitory Concentration) was 0.78 µg/mL (≈ 1.38 µM), the MIC [13] was 0.1 µg/mL (≈ 0.177 µM) and the MIC [14] was 0.2 µg/mL (≈ 0.354 µM). For the same compound, the MIC (Proteus rettgeri KY 4288) was 0.78 µg/mL (≈ 1.38 µM), the MIC [15] was 0.4 µg/mL (≈ 0.708 µM) and the MIC (Proteus mirabilis 1287) was 12.5 µg/mL (≈ 22.1 µM). The MIC (Proteus vulgaris 6897) was 1.56 µg/mL (≈ 2.76 µM), the MIC [16] was 0.78 µg/mL (≈ 1.38 µM) and the MIC ([17]; agar dilution) was 3.12 µg/mL (≈ 5.53 µM). The MIC [18] was 0.4 µg/mL (≈ 0.708 µM), the MIC (Serratia sp T-55) was 0.78 µg/mL (≈ 1.38 µM) and the MIC [19] was 0.2 µg/mL (≈ 0.354 µM). The MIC [20] was 0.4 µg/mL (≈ 0.708 µM), the MIC (Proteus morganii KY 4298; KY4298, agar dilution, pH 7.2, read-out: Minimum Inhibitory Concentration) was 0.78 µg/mL (≈ 1.38 µM) and the MIC (Escherichia coli Juhl; agar dilution) was 0.4 µg/mL (≈ 0.708 µM). It also gave an MIC (Escherichia coli T-5) of 0.4 µg/mL (≈ 0.708 µM) and an MIC (Escherichia coli T-2) of 0.4 µg/mL (≈ 0.708 µM).
